Assay results reported in patent publication US20090104119A1, “Dendrimer Based Compositions And Methods Of Using The Same” (priority 2004, published 2009).

What was measured:
[1] = test system: KB cells; test: Inhibition of cell growth by XTT assay; assay type: cell-based, human
Method: (§1) Cell culture and treatment.
Evaluation of dendrimer cytotoxicity.
Because the binding of the conjugate to KB cells reaches maximal uptake within 1 h (Quintana et al, 2002. Pharmaceutical Research 19: 1310-1316.), the effect of the G5-FI-FA-MTX on cell growth was initially tested by pre-incubation of cells with the conjugate for 1 h, followed by incubation in a drug-free medium for 5 d. […] When the cells were pre-incubated with dendrimers for 4 h, there was a modest decrease of about 10% in cell growth as determined by XTT assay. The cytotoxicity measurements were therefore done by incubation with the dendrimer for a minimum of 24 h, a pre-incubation time period shown to induce significant cytotoxicity.
The inhibition of cell growth induced by the conjugates was also tested by XTT assay which is based on the conversion of XTT to formazan by the active mitochondria of live cells (See, e.g., Roehm et al, J Immunol Methods 142, 257 (1991)).
As free FA blocks the uptake of the dendrimers as well as rescues cells from MTX-induced cytotoxicity, the effect of pre-incubation of cells with excess FA on the anti-proliferative effect of G5-FITC-FA-MTX was tested. KB cells were exposed to different concentrations of the conjugate or free MTX for 24 h in the absence or presence of 50 μM FA. The incubation medium was removed, the cells were rinsed and incubated with fresh medium for 5 additional days in the absence of the drugs, and the XTT assay was performed (See, e.g., FIG. 24, □, ▪, represents cells treated with MTX; Δ, ▴, represents cells treated with G5-FITC-FA-MTX).
The anti-proliferative effect of the MTX-conjugates was compared to conjugates that lacked either the FA or the FITC molecule. KB cells were incubated with 30 nM of the conjugates (=150 nM effective MTX concentration) for 24 h and the incubation medium was removed. The cells were rinsed and incubated for an additional 5 d in fresh medium in the absence of the drugs, and the XTT assay was performed.

[2] = test system: low FAR-expressing KB cells; test: Cellular uptake/binding of dendrimers in low-FAR KB cells, flow cytometry; assay type: cell-based, human
Method: as §1
(§2) Flow Cytometry and Confocal Microscopy. The standard fluorescence of the dendrimer solutions was quantified using a Beckman spectrofluorimeter. For flow cytometric analysis of the uptake of the targeted polymer, cells were trypsinized and suspended in PBS containing 0.1% bovine serum albumin (PBSB) and analyzed using a Becton Dickinson FACScan analyzer. The FL1-fluorescence of 10,000 cells was measured and the mean fluorescence of gated viable cells was quantified. Confocal microscopic analysis was performed in cells plated on a glass cover-slip, using a Carl Ziess confocal microscope. Fluorescence and differential interference contrast (DIC) images were collected simultaneously using an argon laser, using the appropriate filters for FITC.
(§3) The effect of free FA on the uptake of the dendrimers was tested in KB cells that express both high and low FAR. The binding of the conjugates to the low FAR-expressing KB cells was 30% of that of the high FAR-expressing cells for both the G5-FITC-FA and G5-FITC-FA-MTX (See, for e.g., FIG. 19, left panel). […] The binding and internalization of the dendrimers to KB cells was assessed by confocal microscopy. KB cells were incubated with 250 nM of the indicated dendrimers for 24 hours and confocal images were taken. Conjugates containing the targeting molecule FA internalized into KB cells within 24 h (See, e.g., FIG. 20).
Time course and dose dependent inhibition of cell growth.

[3] = test system: KB cells which express a high cell surface FA receptor (FAR); test: Cellular uptake/binding of dendrimers in high-FAR KB cells, flow cytometry; assay type: cell-based, human
Method: as §1, §2
The cellular uptake of the dendrimers was measured in KB cells which express a high cell surface FA receptor (FAR). The FA-conjugated dendrimers bound to the cells in a dose-dependent fashion, with 50% binding at 10-15 nM for both the G5-FITC-FA and G5-FITC-FA-MTX, while the control dendrimer G5-FITC was not detected in the KB cells (See, e.g., FIG. 18A). Identical binding curves were obtained for the G5-FITC-FA and G5-FITC-FA-MTX when the fluorescence obtained was normalized for the quenching observed in the standard solutions of the dendrimers (See e.g., FIG. 18B).
as §3

[4] = Toxicity of dendrimer conjugates and free methotrexate in mice (body weight, histopathology); assay type: in vivo; conditions: occasional periportal lymphocytes, single-cell necrosis
Method: Delivery of targeted nanoparticle therapeutic. Twice weekly, SCID mice with s.c. KB xenografts, starting on day 4 after tumor implantation, received via the tail vein an injection of either targeted or nontargeted conjugate containing methotrexate, a conjugate without methotrexate, free methotrexate, or saline as a control. The compounds were delivered in a 0.2 mL volume of saline per 20 g of mouse. The single dose of methotrexate delivered each time equaled 0.33 mg/kg. The higher doses of 1.67 and 3.33 mg/kg free methotrexate were also tested. The conjugates were delivered at equimolar concentration of methotrexate calculated based on the number of methotrexate molecules present in a nanoparticle. The conjugate without methotrexate was delivered at equimolar concentration of dendrimer. In the initial trial, six groups of mice with five mice in each group received up to 15 injections. In the follow-up trial, mice received up to 28 injections dependent on their survival. The body weights of the mice were monitored throughout the experiment as an indication of adverse effects of the drug. Histopathology of multiple organs was done at the termination of each trial and each time mouse had to be euthanized due to toxic effects or tumor burden. Tissues from lung, heart, liver, pancreas, spleen, kidney, and tumor were analyzed. Additionally, cells were isolated from tumors, stained with targeted fluorescein-labeled conjugate, and tested for the presence of folic acid receptors using flow cytometer.
Toxicity of dendrimer conjugates. […] No gross toxicity, either acutely or chronically up to 99 days, was observed regardless of whether the dendrimer conjugate contained methotrexate. The weight was monitored throughout the experiment and no loss of weight was observed; in fact, the animals gained weight. At each time point, a gross examination and histopathology of the liver, spleen, kidney, lung, and heart were done. No morphologic abnormalities were observed on the histopathology examination.
The remaining experimental groups had very uniform body weight fluctuations nonindicative of toxicity when compared with control groups with saline or conjugate without methotrexate.

## G5-(Ac)82-(FITC)5-(FA)5-MTX5 [G5-FITC-FA-MTX]
[1]; 1, 2 or 3 days
  inhibition of cell growth, XTT: time-dependent cytotoxicity
[1]; pre-incubated 4 h, XTT assay
  decrease in cell growth: about 10%
[1]; pre-incubation 1 h, then drug-free medium 5 d
  growth-inhibitory effect: failed to show any growth-inhibitory effect
[2]
  binding to low FAR-expressing KB cells relative to high FAR-expressing cells: 30%
[2]; 50 μM FA, dendrimer 30 nM
  effect of free FA on uptake, low-FAR expressing cells: completely blocked
[3]; 100 nM
  time to maximal binding: ≤ 30 min
[3]; 50 μM FA, dendrimer 30 nM
  effect of free FA on uptake, high-FAR expressing cells: completely blocked
[4]
  liver slides versus saline controls: did not differ from that of control animals injected with saline
